Results as given in ChEMBL document CHEMBL5352431 (Eur J Med Chem, 2022).
Several values for one entry are separate records, joined by “and”; a condition that tells them apart may be missing. Equal entries are not always repeated.

What was measured:
[1] = target: T1, Melatonin receptor type 1A (Homo sapiens, UniProt P48039); assay: Displacement of 2-[125I]iodoMLT from human MT1 receptor expressed in mouse NIH3T3 cells incubated for 90 mins by Cheng-Prusoff equation analysis; type: cell-based
[2] = target: T2, Melatonin receptor type 1B (Homo sapiens, UniProt P49286); assay: Displacement of 2-[125I]iodoMLT from human MT2 receptor expressed in mouse NIH3T3 cells incubated for 90 mins by Cheng-Prusoff equation analysis; type: cell-based
T2 sequence (P49286 whole entry): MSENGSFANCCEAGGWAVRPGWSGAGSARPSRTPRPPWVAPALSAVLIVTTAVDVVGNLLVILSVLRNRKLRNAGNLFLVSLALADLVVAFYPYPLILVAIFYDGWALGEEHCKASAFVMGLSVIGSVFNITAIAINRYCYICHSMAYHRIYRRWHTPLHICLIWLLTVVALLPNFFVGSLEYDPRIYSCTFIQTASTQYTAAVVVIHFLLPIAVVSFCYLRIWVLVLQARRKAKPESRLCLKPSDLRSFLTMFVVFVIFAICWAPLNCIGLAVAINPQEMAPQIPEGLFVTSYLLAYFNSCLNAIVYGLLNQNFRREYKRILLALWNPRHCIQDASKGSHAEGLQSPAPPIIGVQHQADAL

[3] = target: T1, Melatonin receptor type 1A; assay: Binding affinity to MT1 receptor (unknown origin) assessed as inhibition constant
[4] = target: T2, Melatonin receptor type 1B; assay: Binding affinity to MT2 receptor (unknown origin) assessed as inhibition constant
[5] = target: T1, Melatonin receptor type 1A; assay: Displacement of 2-[125I]iodoMLT from recombinant human MT1 receptor expressed in African green monkey COS-7 cells incubated for 1.5 hrs by Cheng-Prusoff equation analysis; type: cell-based
[6] = target: T1, Melatonin receptor type 1A; assay: Displacement of 2-[125I]iodoMLT from human MT1 receptor stably expressed in CHO cells by Cheng-Prusoff equation analysis; type: cell-based
[7] = target: T2, Melatonin receptor type 1B; assay: Displacement of 2-[125I]iodoMLT from human MT2 receptor stably expressed in CHO cells by Cheng-Prusoff equation analysis; type: cell-based
[8] = target: T1, Melatonin receptor type 1A; assay: Displacement of 2-[125I]iodoMLT from human MT1 receptor stably expressed in CHO cells incubated for 60 mins by Cheng-Prusoff equation analysis; type: cell-based

T1 sequence (P48039 whole entry): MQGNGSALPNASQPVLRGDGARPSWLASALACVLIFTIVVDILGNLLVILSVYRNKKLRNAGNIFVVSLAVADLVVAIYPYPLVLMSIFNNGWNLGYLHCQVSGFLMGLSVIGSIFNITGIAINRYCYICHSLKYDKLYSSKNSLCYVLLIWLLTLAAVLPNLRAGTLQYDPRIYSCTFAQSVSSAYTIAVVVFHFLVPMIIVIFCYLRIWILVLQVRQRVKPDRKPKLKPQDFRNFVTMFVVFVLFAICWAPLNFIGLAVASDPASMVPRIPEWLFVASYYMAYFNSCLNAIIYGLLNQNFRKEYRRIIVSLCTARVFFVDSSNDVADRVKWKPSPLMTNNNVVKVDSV

SMILES | Ki [1] | Ki [2] | also measured
COc1ccc2[nH]c(-c3ccccc3)c(CCNC(C)=O)c2c1 | 0.0219 nM | 0.038 nM | 
CC(=O)NCCc1c(-c2cccc(O)c2)oc2ccc3c(c12)CCCO3 |  |  | Ki [3]: 0.87 nM; Ki [4]: 0.21 nM
COc1ccc2[nH]c(Cc3ccccc3)c(CCNC(C)=O)c2c1 |  |  | Ki [5]: 31.6 nM
COc1ccc2[nH]c(-c3ccc4ccccc4c3)c(CCNC(C)=O)c2c1 | 36.3 nM | 1.1 nM | 
COc1ccc2[nH]c(Oc3ccccc3)c(CCNC(C)=O)c2c1 | 11.5 nM | 2.95 nM | 
COc1cccc(N(CCNC(C)=O)c2cccc(CO)c2)c1 |  |  | Ki [8]: > 100 nM
COc1ccc2[nH]c(-c3ccc(-c4ccccc4)cc3)c(CCNC(C)=O)c2c1 | 16.2 nM | 5.01 nM | 
COc1ccc2[nH]c(-c3cccc4ccccc34)c(CCNC(C)=O)c2c1 | 15.5 nM | 0.191 nM | 

Now from value to molecule, other results behind:

Ki [1] | Ki [2] | SMILES | also measured
12 nM and 33.9 nM and 12.9 nM | 0.309 nM and 0.575 nM and 0.126 nM | COc1ccc2c(c1)c(CCNC(C)=O)c(-c1cccc3ccccc13)n2C | Ki [6]: 40.7 nM and 97.7 nM and 33.1 nM; Ki [7]: 0.302 nM and 0.38 nM and 0.288 nM
0.977 nM | 0.0631 nM | COc1ccc2[nH]c(Sc3ccccc3)c(CCNC(C)=O)c2c1 | 
0.17 nM | 0.0603 nM | COc1ccc2[nH]c(-c3cccnc3)c(CCNC(C)=O)c2c1 | 
14.8 nM | 0.295 nM | COc1ccc2[nH]c(-c3cccc4[nH]ccc34)c(CCNC(C)=O)c2c1 | 
14.8 nM | 2.69 nM | COc1ccc2[nH]c(-c3cccc4ncccc34)c(CCNC(C)=O)c2c1 | 
